Assay results: patent EP3820512B1, “IMMUNOMODULATING COMPOSITIONS COMPRISING OLIGOSACCHARIDE DERIVATIVES” (priority 2018, dated 2020)

Tests used:
[1] = molecular target: TLR4 (Homo sapiens, UniProt O00206); test: TLR4 inhibitory and activating activity in THP-1 cells at low and high concentrations; format: cell-based; parameters: endogenous in cells; host or cells: THP-1 (human monocytic) cells; conditions: for % inhibition over control TLR4 / % activation over control TLR4: THP-1 cells; for TLR2/4 antagonist activity: as shown in Table-1 (FIG. 1), TLR2 and TLR4
[2] = test system: HUVECs; test: Cytotoxicity in HUVECs, MTT cell proliferation kit; format: cell-based, human; conditions: 100 µM, 24h
Procedure: Selected TLR2/4 antagonist compounds 2, 6, 7, 8, 14, 17 and 32 were evaluated for cytotoxicity in HUVECs at 100 µM concentration. The cells were treated with compounds and incubated for 24h. Cell viability was assessed using MTT cell proliferation kit (Promega). All the compounds were not toxic to HUVECs (FIG. 15).

[3] = test system: VEGF induced tube formation in HUVECs; test: Anti-angiogenic activity, Tube Formation kit, VEGF induced; format: cell-based, human; conditions: VEGF 100ng/mL
Procedure: Selected TLR2/4 antagonist compounds 2, 6, 7, 8, 14, 17 and 32 were evaluated for anti-angiogenic activity using the Tube Formation kit (Cat#3470-096-K). VEGF (100ng/mL) was used as positive control. These compounds have potential applications in diseases associated with pathological angiogenesis such as solid tumor, […], diabetic retinopathy as well as AMD.

[4] = molecular target: T1, TLR2 (Homo sapiens, UniProt O60603); test: TLR2 activity in PMA-stimulated THP-1 monocyte cells, ELISA of cell lysate; format: cell-based; conditions: THP-1 cells
T1 construct: endogenous in cells; host or cells: THP-1 monocyte cells stimulated with PMA
Procedure: THP-1 monocyte cells (1×10^5) were stimulated with 200nM of PMA for 48h and treated with different concentrations of test compounds. The TLR2 activity was measured after 24 h from the cell lysate using ELISA.

[5] = test system: hPBMC; test: Cytotoxicity in hPBMC, MTT cell proliferation kit; format: cell-based, human; conditions: 0.1, 1.0, 10, 100 and 1000 µM, 24h
Procedure: The cells were treated with compounds and incubated for 24h. Cell viability was assessed using MTT cell proliferation kit (Promega).

[6] = test system: THP-1 (human monocytic) cells; test: Cytokine response (IL-1β, TNF-α, IL-10) of THP-1 cells treated with compounds; format: cell-based; conditions: 100-200 µM
Procedure: When THP-1 (human monocytic) cells were treated with 100-200 µM of compounds 8, 14, 17, 23, 29, and 32, they produced an increased IL-1β and TNF-α response, decreased anti-inflammatory cytokine IL-10 (FIG. 4).

[7] = test system: hyperoxia induced BPD in mouse pups; test: Hyperoxia-exposed BPD mouse model (newborn pups); format: in vivo
Description: Neonatal mice and humans undergo similar stages of lung development but differ with respect to the duration of each stage and its temporal relationship to gestational age. The lungs of the mouse born at term are in the saccular stage and are surfactant sufficient; this can be considered somewhat akin to a human preterm neonate in the same stage of lung development that has been exposed to a full complement of antenatal steroids (which is known to enhance surfactant production). In terms of mimicking the human condition, the most successful hyperoxia models are those that limit exposure to hyperoxia to the saccular stage of pulmonary development. The mouse BPD model involves exposing newborn mice (postnatal day 1 or PN1) to 100% oxygen till PN4 followed by recovery in room air (RA) for another 10 days.
After the recovery period, their lungs were harvested and processed for quantitative PCR, western blotting, histopathology and ELISA.
After the recovery period, their lungs were harvested and processed for quantitative PCR, western blotting and histopathology and ELISA.
BPD is characterized by large simplified alveoli, inflammation, increased cell death, decreased cell proliferation, dysmorphic capillary configuration, and variable interstitial cellularity and/or fibroproliferation. […] This is determined by measuring the alveolar chord length, septal thickness and radial alveolar count (RAC). In BPD, the alveolar area increases which is characterized by increase in the diameter of the alveolar sacs, the septa become thickened (thus interfering in gaseous exchange) and the RAC, a parameter used to assess the complexity of terminal respiratory unit by pulmonologists, decreases as a result of arrested lung development.

[8] = test system: P. aeruginosa (ATCC-10145 GFP) infected skin wounds; test: Murine study of skin wound infection; format: in vivo, C57BL6 mice
Procedure: Five groups of C57BL/6 mice (8-10 weeks old, n = 4) were wounded on the dorsal surface. 25µl containing 10^6 CFU/mL P. aeruginosa in a PBS suspension were pipetted onto the wound and allowed to absorb for at least 3 min. […] Subsequently and for the next 13 days, infected wounds were treated each alternate day with colistin, or with test compounds.
Along with that less focal inflammation is observed in compound treated groups vs PA group.

Sequence of TLR4 (O00206 24-839): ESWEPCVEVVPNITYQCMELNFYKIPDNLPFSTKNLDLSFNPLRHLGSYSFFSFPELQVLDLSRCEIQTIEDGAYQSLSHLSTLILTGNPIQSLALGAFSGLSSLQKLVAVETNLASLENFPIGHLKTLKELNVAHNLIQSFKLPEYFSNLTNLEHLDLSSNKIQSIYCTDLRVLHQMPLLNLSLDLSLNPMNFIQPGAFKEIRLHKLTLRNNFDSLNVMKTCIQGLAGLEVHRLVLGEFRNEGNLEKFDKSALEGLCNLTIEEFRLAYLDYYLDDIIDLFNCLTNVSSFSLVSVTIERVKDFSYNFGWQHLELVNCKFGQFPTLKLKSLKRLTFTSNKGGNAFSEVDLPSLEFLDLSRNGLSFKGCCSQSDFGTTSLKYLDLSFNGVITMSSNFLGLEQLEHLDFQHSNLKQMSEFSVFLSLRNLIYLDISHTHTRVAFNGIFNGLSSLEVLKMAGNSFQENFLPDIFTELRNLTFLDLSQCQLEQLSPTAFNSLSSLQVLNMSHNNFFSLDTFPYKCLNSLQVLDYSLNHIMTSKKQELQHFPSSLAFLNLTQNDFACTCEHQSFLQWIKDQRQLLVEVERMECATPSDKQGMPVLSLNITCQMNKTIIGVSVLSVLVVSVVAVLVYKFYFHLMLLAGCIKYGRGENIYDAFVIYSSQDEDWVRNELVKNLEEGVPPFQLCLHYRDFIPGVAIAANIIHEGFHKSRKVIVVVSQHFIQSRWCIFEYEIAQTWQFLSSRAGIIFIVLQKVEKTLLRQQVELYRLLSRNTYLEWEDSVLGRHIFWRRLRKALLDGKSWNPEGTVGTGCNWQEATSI
Sequence of TLR4 (Q9Y6Y9 17-160 partner limits assumed): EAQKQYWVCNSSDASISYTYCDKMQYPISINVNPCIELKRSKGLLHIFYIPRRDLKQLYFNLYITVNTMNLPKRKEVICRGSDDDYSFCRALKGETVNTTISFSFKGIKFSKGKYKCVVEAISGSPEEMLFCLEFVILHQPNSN
T1 sequence (O60603 21-784): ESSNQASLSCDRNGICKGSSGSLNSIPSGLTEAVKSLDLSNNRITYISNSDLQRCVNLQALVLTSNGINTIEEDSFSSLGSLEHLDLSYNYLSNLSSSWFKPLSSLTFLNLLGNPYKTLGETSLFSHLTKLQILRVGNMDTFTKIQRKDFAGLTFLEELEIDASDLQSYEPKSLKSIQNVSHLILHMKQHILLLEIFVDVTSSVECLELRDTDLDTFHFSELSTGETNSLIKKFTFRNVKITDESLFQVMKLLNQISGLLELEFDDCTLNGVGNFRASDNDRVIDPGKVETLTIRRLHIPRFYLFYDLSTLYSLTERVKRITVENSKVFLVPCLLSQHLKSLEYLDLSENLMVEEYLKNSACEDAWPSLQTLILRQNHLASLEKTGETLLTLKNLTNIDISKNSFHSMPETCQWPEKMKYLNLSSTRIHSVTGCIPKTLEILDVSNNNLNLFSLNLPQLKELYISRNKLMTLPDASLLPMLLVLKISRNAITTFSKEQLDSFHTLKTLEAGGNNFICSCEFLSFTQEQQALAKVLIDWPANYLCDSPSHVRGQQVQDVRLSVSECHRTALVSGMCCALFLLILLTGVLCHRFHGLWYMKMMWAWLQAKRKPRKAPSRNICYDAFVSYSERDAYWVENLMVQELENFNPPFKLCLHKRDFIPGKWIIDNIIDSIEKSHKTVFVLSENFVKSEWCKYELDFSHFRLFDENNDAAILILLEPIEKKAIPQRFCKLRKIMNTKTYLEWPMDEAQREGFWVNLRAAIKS

Compound	% inhibition over control TLR4 ([1]; Concentration 1-10 µM)	% inhibition over control TLR4 ([1]; Concentration 75-100 µM)	TLR2/4 antagonist activity ([1]; summary in words)	cytotoxicity in HUVECs (cell viability) [2]	VEGF induced tube formation [3]	% inhibition over control TLR2 ([4]; Concentration 1-10 µM)	% inhibition over control TLR2 ([4]; Concentration 75-100 µM)	cytotoxicity in hPBMC (cell viability) [5]	% activation over control TLR4 ([1]; Concentration 75-100 µM)	further results
CC(=O)N[C@@H]1[C@@H](OC(C)=O)[C@H](OC(C)=O)[C@@H](COC(C)=O)O[C@H]1NC(=O)c1ccc(O[C@@H]2O[C@H](CO)[C@@H](O)[C@H](O)[C@H]2NC(C)=O)cc1 [Compound 2]	++ (++ means that the % of inhibition or activation is in the range of 25-75%)	+++ (+++ means that the % of inhibition or activation is in the range of 75-95%)	potent TLR2/4 antagonists	not toxic	significantly decreased	+ (+ means that the % of inhibition or activation is in the range of 15-25%)	+++ (+++ means that the % of inhibition or activation is in the range of 75-95%)	not toxic		
CC(=O)NC1[C@H](Oc2ccc(N3CCN(C(C)=O)CC3)cc2)O[C@H](CO)[C@@H](O)[C@@H]1O (single isomer, unassigned) [Compound 28]	+ (+ means that the % of inhibition or activation is in the range of 15-25%)								++ (++ means that the % of inhibition or activation is in the range of 25-75%)	
CC(=O)N[C@H]1[C@H](Oc2ccc(C#N)cc2)O[C@H](CO)[C@@H](O)[C@@H]1O [Compound 14, p-Cyanophenyl 2-acetamido-2-deoxy-β-D-glucopyranoside]			potent TLR2/4 antagonists	not toxic	significantly decreased			not toxic		% inhibition over control TLR4 ([1]; Concentration 1 µM): +++ (+++ means that the % of inhibition or activation is in the range of 75-95%); % inhibition over control TLR4 ([1]; Concentration 100 µM): +++ (+++ means that the % of inhibition or activation is in the range of 75-95%); IL-1β response [6]: increased; TNF-α response [6]: increased; anti-inflammatory cytokine IL-10 [6]: decreased
CC(=O)N[C@@H]1[C@@H](O)[C@H](O)[C@@H](CO)O[C@H]1NC(=O)c1ccc(O[C@@H]2O[C@H](CO)[C@@H](O)[C@H](O)[C@H]2NC(C)=O)cc1 [Compound 3]	++ (++ means that the % of inhibition or activation is in the range of 25-75%)	+++ (+++ means that the % of inhibition or activation is in the range of 75-95%)	potent TLR2/4 antagonists			++ (++ means that the % of inhibition or activation is in the range of 25-75%)	+++ (+++ means that the % of inhibition or activation is in the range of 75-95%)			TLR4 inhibition in vivo ([7]; neonatal pups with BPD): inhibit; lung architecture ([7]; saline (IV) and nanosuspension (IN) formulation): restored
CC(=O)NC1[C@H](Oc2cccc3sc(NC(=O)C(C)(C)C)nc23)O[C@H](CO)[C@@H](O)[C@@H]1O (single isomer, unassigned) [Compound 23]	+ (+ means that the % of inhibition or activation is in the range of 15-25%)	+ (+ means that the % of inhibition or activation is in the range of 15-25%)								IL-1β response [6]: increased; TNF-α response [6]: increased; anti-inflammatory cytokine IL-10 [6]: decreased
CC(=O)N[C@H]1[C@H](Oc2ccc(NC(=O)c3ccc(O[C@@H]4O[C@H](CO)[C@@H](O)[C@H](O)[C@H]4NC(C)=O)cc3)cc2)O[C@H](CO)[C@@H](O)[C@@H]1O [Compound 7]	+++ (+++ means that the % of inhibition or activation is in the range of 75-95%)	+++ (+++ means that the % of inhibition or activation is in the range of 75-95%)	potent TLR2/4 antagonists	not toxic	significantly decreased	++ (++ means that the % of inhibition or activation is in the range of 25-75%)	+++ (+++ means that the % of inhibition or activation is in the range of 75-95%)	not toxic		
CC(=O)N[C@H]1[C@H](Oc2ccc3c(C)cc(=O)oc3c2)O[C@H](COS(=O)(=O)O)[C@@H](O)[C@@H]1O [Compound 30]	+ (+ means that the % of inhibition or activation is in the range of 15-25%)								+ (+ means that the % of inhibition or activation is in the range of 15-25%)	% activation over control TLR4 ([1]; Concentration 1-10 µM): + (+ means that the % of inhibition or activation is in the range of 15-25%)
CC(=O)N[C@H]1[C@H](Oc2ccc3nonc3c2)O[C@H](CO)[C@@H](O)[C@H]1O (stereo in doubt) [Compound 17, N-((2S,3R,4S,5S,6R)-2-(benzo[c][1,2,5]oxadiazol-5-yloxy)-4,5-dihydroxy-6-(hydroxymethyl)tetrahydro-2H-pyran-3-yl)acetamide]				not toxic	significantly decreased	++ (++ means that the % of inhibition or activation is in the range of 25-75%)	+++ (+++ means that the % of inhibition or activation is in the range of 75-95%)	not toxic	++ (++ means that the % of inhibition or activation is in the range of 25-75%)	IL-1β response [6]: increased; TNF-α response [6]: increased; anti-inflammatory cytokine IL-10 [6]: decreased
colistin [reference compound]										Re-epithelialization and granulation tissue ([8]; H&E histology, day 13 post-injury, vs controls, p=0.050 (Colistin, compound 1), p=0.073 (compound 8)): significantly enhanced; closure of P. aeruginosa infected skin wounds ([8]; topical, each alternate day, day 13, compounds 100µM / 100µg /ml, Colistin 4µg/ml): complete closure
CC(=O)NC1[C@H](Oc2ccc(B(O)O)cc2)O[C@H](CO)[C@@H](O)[C@@H]1O (single isomer, unassigned) [Compound 35, p-Boronic acid phenyl 2-acetamido-2-deoxy-β-D-glucopyranoside]	+++ (+++ means that the % of inhibition or activation is in the range of 75-95%)		potent TLR2/4 antagonists						++ (++ means that the % of inhibition or activation is in the range of 25-75%)	TLR4 modulatory activity ([1]; summary in words): concentration dependent TLR4 modulatory activity
CC(=O)N[C@H]1[C@H](Oc2ccc([N+](=O)[O-])cc2Cl)O[C@H](CO)[C@@H](O)[C@@H]1O [Compound 11]	+ (+ means that the % of inhibition or activation is in the range of 15-25%)	+ (+ means that the % of inhibition or activation is in the range of 15-25%)								
CC(=O)N[C@H]1[C@H](Oc2ccc(C(=O)Nc3ccc(O[C@@H]4O[C@H](COC(C)=O)[C@@H](OC(C)=O)[C@H](OC(C)=O)[C@H]4NC(C)=O)cc3)cc2)O[C@H](CO)[C@@H](O)[C@@H]1O [Compound 6]	++ (++ means that the % of inhibition or activation is in the range of 25-75%)	+++ (+++ means that the % of inhibition or activation is in the range of 75-95%)	potent TLR2/4 antagonists	not toxic	significantly decreased					
COc1ccc(O[C@@H]2O[C@H](CO)[C@@H](O)[C@H](O)[C@H]2NC(C)=O)cc1 [Compound 38]							++ (++ means that the % of inhibition or activation is in the range of 25-75%)			
